From patent US12552812B2, “Pyridone multiple-membered ring derivatives and use thereof” (priority 2021, dated 2026)

Assays:
[1] = test system: Baloxavir-resistant A/PR/8/34 (H1N1) I38T virus strain; set-up: species or system BALB/c mice; conditions: mouse, in vivo
[2] = test system: Baloxavir-resistant A/PR/8/34 (H1N1) I38T influenza virus strain; format: cell-based

SMILES | Survival rate (%) [1] [%] | body weight of the mice [1] | EC50 [2] [µM]
COC(=O)OCOc1c2n(ccc1=O)N([C@H]1c3ccc(F)c(F)c3C[Se]c3cccnc31)[C@@H]1COCCN1C2=O [Compound 4] | 100 | hardly decreased | –
O=C1c2c(O)c(=O)ccn2N([C@H]2c3ccc(F)c(F)c3C[Se]c3cccnc32)[C@@H]2COCCN12 [Compound 3] | – | – | 0.0575
